From patent US20070166710A1, “Methods for inhibiting adipogenesis and for treating type 2 diabetes” (priority 2003, published 2007)

Tests used:
Fxr = Fxr expression in primary adipocytes of lean mice cultured with insulin; assay type: cell-based; conditions: insulin 50 nM, 60 hours
Shp = Shp expression in primary adipocytes of lean mice cultured with insulin; assay type: cell-based; conditions: insulin 50 nM, 60 hours
Foxa-2 activity = assay: Transactivation assay, HepG2 cells transfected with Foxa-2 and pPepck-Luc or p6xCdx-TkLuc; assay type: cell-based, rat; conditions: insulin 100 nM for the duration of transfection
Description: Transfections and Transactivation assay. HepG2 cells were grown to 60-70% confluence in a 24-well dish and transfected with 50 ng of each reporter gene (p6xCdx-TkLuc or pPEPCK-Luc), pCMV-β-Gal as internal reference and the expression vectors for wildtype or mutant Foxa-1 and Foxa-2 and human Akt1/Akt2 using the transfection reagent Fugene6 (Roche). Cells were grown for 48 hours and luciferase activity was measured using the Luciferase Detection System (Promega). Luciferase was normalized for transfection efficiency by β-galactosidase activity.
To analyze whether Foxa-2 activity is regulated by insulin, HepG2 cells were transfected with a Foxa-2 expression vector and either plasmid pPepck-Luc or p6xCdx-TkLuc that contain a 621 bp promoter framnent of the human PEPCK gene or six Foxa-2 binding sites of the Cdx-2 gene upstream of a minimal promoter and the luciferase gene, respectively.

Foxa-1, 2 and 3 = assay: Expression levels of Foxa-1, 2 and 3 in primary hepatocytes (RT-PCR); assay type: cell-based; conditions: insulin-treated cells
Foxa-2 [1] = assay: Immunofluorescence of subcellular distribution of endogenous Foxa-2 in HepG2 cells; assay type: cell-based; conditions: insulin 50 nM
Description: Immunofluorescence microscopy. Cells were fixed for 30 minutes at room temperature with 2% paraformaldehyde. For immunofluorescent detection of Foxa-1 or Foxa-2, fixed cells were incubated with respective polyclonal antibodies (1:100) (Ruiz i Altaba et al. (1993) Mech. Dev. 44: 91-108) overnight at 4° C. After washing, the cells were treated with anti rabbit IgG secondary antibody linked to Alexa Fluor 488 (Molecular Probes). Immunofluorescent staining was visualized using laser-scanning micrsocopy. To determine whether Akt-induced phosporylation of Foxa-2 has an effect on the subcellular distribution of this transcription factor, the following experiment was performed. HepG2 cells were grown to 60% confluency and endogenous Foxa-1 and Foxa-2 proteins were visualized by immunofluorescence after staining with anti Foxa-1 and Foxa-2 antibodies. Cells were either examined in the absence or presence of insulin (50 nM) and/or Ly294002 or PD98059, and after transfection with either Akt1 or Akt2 expression vectors (FIG. 5B). […] Treatment of cells with MAPKK1 inhibitor PD98059 had no effect on insulin stimulated nuclear exclusion of Foxa-2. The subcellular distribution of Foxa-2 in cells that were stimulated with insulin and expressed a dominant negative form of Akt (Akt[…]) were resistant to nuclear exclusion. […]

Foxa-2 [2] = assay: Immunoblot of phospho-TI56 Foxa-2 in livers after intraportal insulin; assay type: in vivo, mice
Description: FIG. 15a is an immunoblot of Foxa-2 and Foxo-1 in liver nuclear extracts of fed (n=3) and starved (n=3) mice. Anti-TATA binding protein (Tbp) antibodies were used as a loading control. FIGS. 15b and 15c are immunoblots of Foxa-2 and Foxo-1 in nuclear extracts of livers from mice perfused with different concentrations of insulin. FIG. 15d is a Western blot of Foxa-2 immunoprecipitated with anti-Foxa-2 antibodies from whole cell extracts of livers obtained from fasted mice 30 minutes after injection of 10 ng insulin or PBS in the portal vein. Samples (n=3 for each group) were analyzed by immunoblot analysis with an antibody directed against phospho-TI56 Foxa-2 (top panel) or with an antibody directed against total Foxa-2 protein (bottom panel). […]
The role of Foxa-2 in the regulation of liver gene expression by nutritional status was examined by determining the intracellular localization of Foxa-2 in fasted and fed mice by Western blotting of Foxa-2 in liver nuclear extracts and by immunohistochemistry. […] Strong Foxa-2 immunostaining was detected in hepatocyte nuclei of control (PBS) mice. […] Foxa-2 protein levels were measured in liver nuclei of C57/B6 mice that were perfused with a buffer containing a range of insulin concentrations that included fasting and postprandial insulin levels (0.2 and 4.0 ng/ml, respectively). […] Foxa-2 levels were determined by immunoblotting. […]

insulin: Insulin was from Sigma; hormone used as stimulus
Fxr expression (Fxr): induced
Expression of Shp (Shp): induced
Foxa-2 activity (luciferase reporter) (Foxa-2 activity): significantly decreased
expression levels of Foxa-1, 2 and 3 (Foxa-1, 2 and 3): did not significantly change
subcellular localization of endogenous Foxa-2 (Foxa-2 [1]): efficiently excluded from the nucleus
phosphorylated Foxa-2 detected by anti-phospho TI56 peptide antibody (Foxa-2 [2]; intraportal injection of insulin vs PBS): recognized phosphorylated Foxa-2
Foxa-2 protein levels (anti-Foxa-2 antibodies) (Foxa-2 [2]; treated vs untreated livers): the same
